In patent US20140018353A1, “METHOD OF TREATING B-CELL MALIGNANT CANCERS AND T-CELL MALIGNANT CANCERS USING THIENOTRIAZOLODIAZEPINE COMPOUNDS” (Oncoethix SA, priority 2012, published 2014):
Entries after “also recorded” stand apart in the source; their conditions may differ.

What was measured:
DoHH2 = experiment: MTT proliferation assay, 72 h; assay type: cell-based; conditions: Homo sapiens, DOHH-2, DoHH2 (DLBCL), read-out: estimated IC50
Description: (§1) The activity of Formula 2 was evaluated in four mantle cell lymphoma (MCL), ten diffuse large B-cell lymphoma (DLBCL) established human cell lines, a set of multiple myeloma (MM) cell lines, three splenic marginal zone lymphoma (SMZL) cell lines and eight anaplastic large T-cell lymphoma (ALCL) cell lines. Cells were exposed to increasing doses of the compound for 72 hours.
(§2) The proliferation assay was performed using the following procedure. Cells were seeded into 96-well plates at the density of 104 per well. Formula 2 (Oncoethix SA, Lausanne, Switzerland) was dissolved in DMSO as a stock solution of 10 mM and divided in aliquots stored at −80° C. For each experiment, an aliquot of the stock solution was thawed and used within 2 to 3 days. Formula 2 was serially diluted in tissue culture media, added to cells (in five replicates) and incubated for 72 hours at 37° C. Control cells were treated with equal amounts of DMSO. The 3-(4,5-dimethylthiazol-2-yl)-2,5-diphenyltetrazolium bromide (MTT) (Sigma, Buchs, Switzerland) was prepared as a stock of 5 mg/mL in phosphate-buffered saline (PBS) and filter-sterilized. An amount of MTT solution equal to 0.5 mg/mL was then added to each well and incubated in the dark at 37° C. for 4 hours. Cells were then lysed with 25% sodium dodecylsulfate (SDS) lysis buffer and absorbance was read at 570 nm on a Beckman Coulter-AD340 instrument. Three independent experiments were run for each cell line. The doses corresponding to the IC50 were estimated by fitting a sigmoidal model through the dose response curve using the R statistical package (R: A Language and Environment for Statistical Computing, R Foundation for Statistical Computing, Vienna, Austria).

Granta-519 = experiment: MTT proliferation assay, 72 h; assay type: cell-based; conditions: Homo sapiens, Granta-519 (MCL), read-out: estimated IC50
Description: as §1, §2

JeKo-1 = experiment: MTT proliferation assay, 72 h; assay type: cell-based; conditions: Homo sapiens, JeKo-1 (MCL), read-out: estimated IC50
Description: as §1, §2

Karpass 422 = experiment: MTT proliferation assay, 72 h; assay type: cell-based; conditions: Homo sapiens, Karpass 422 (DLBCL), read-out: estimated IC50
Description: as §1, §2

MAVER-1 = experiment: MTT proliferation assay, 72 h; assay type: cell-based; conditions: Homo sapiens, Maver1, MAVER-1 (MCL), read-out: estimated IC50
Description: as §1, §2

MM1S = experiment: MTT proliferation assay, 72 h; assay type: cell-based; conditions: Homo sapiens, MM1.S, MM1S (MM), read-out: estimated IC50
Description: as §1, §2

OCI-Ly7 = experiment: MTT proliferation assay, 72 h; assay type: cell-based; conditions: Homo sapiens, OCI-Ly7 (DLBCL), read-out: estimated IC50
Description: as §1, §2

RPMI8226 = experiment: MTT proliferation assay, 72 h; assay type: cell-based; conditions: Homo sapiens, RPMI-8226, RPMI8226 (MM), read-out: estimated IC50
Description: as §1, §2

Rec-1 = experiment: MTT proliferation assay, 72 h; assay type: cell-based; conditions: Homo sapiens, Rec1, Rec-1 (MCL), read-out: estimated IC50
Description: as §1, §2

SU-DHL-2 = experiment: MTT proliferation assay, 72 h; assay type: cell-based; conditions: Homo sapiens, SU-DHL-2 (DLBCL), read-out: estimated IC50
Description: as §1, §2

SU-DHL-4 = experiment: MTT proliferation assay, 72 h; assay type: cell-based; conditions: Homo sapiens, SU-DHL-4 (DLBCL), read-out: estimated IC50
Description: as §1, §2

SU-DHL-5 = experiment: MTT proliferation assay, 72 h; assay type: cell-based; conditions: Homo sapiens, SU-DHL-5 (DLBCL), read-out: estimated IC50
Description: as §1, §2

SU-DHL-6 = experiment: MTT proliferation assay, 72 h; assay type: cell-based; conditions: Homo sapiens, SU-DHL-6 (DLBCL), read-out: estimated IC50
Description: as §1, §2

SU-DHL-7 = experiment: MTT proliferation assay, 72 h; assay type: cell-based; conditions: Homo sapiens, SU-DHL-7 (DLBCL), read-out: estimated IC50
Description: as §1, §2

U-2932 = experiment: MTT proliferation assay, 72 h; assay type: cell-based; conditions: Homo sapiens, U2932, U-2932 (DLBCL), read-out: estimated IC50
Description: as §1, §2

U266 = experiment: MTT proliferation assay, 72 h; assay type: cell-based; conditions: Homo sapiens, U-266, U266 (MM), read-out: estimated IC50
Description: as §1, §2

DLBCL cell lines [1] = experiment: MTT proliferation assay, 72 h; assay type: cell-based, human; conditions: for IC50: Homo sapiens
Description: as §1, §2

MCL cell lines = experiment: MTT proliferation assay, 72 h; assay type: cell-based, human; conditions: three MCL cell lines
Description: as §1, §2

MM cell lines [2] = experiment: MTT proliferation assay, 72 h; assay type: cell-based, human; conditions: all MM cell lines
Description: as §1, §2

VAL = experiment: MTT proliferation assay, 72 h; assay type: cell-based, human
Description: as §1, §2

SMZL cell lines = experiment: MTT proliferation assay; assay type: cell-based, human; conditions: three SMZL cell lines
Description: as §1
as §2, with “An amount of MTT solution equal to 0.5 mg/mL was then added to each well and incubated in the dark at 37° C. for 4 hours.” left out, “Three independent experiments were run for each cell line. The doses corresponding to the IC50 were estimated by fitting a sigmoidal model through the dose response curve using the R statistical package (R: A Language and Environment for Statistical Computing, R Foundation for Statistical Computing, Vienna, Austria).” left out
The activity of Formula 2 was also evaluated in SMZL cell lines using the procedures described in Example 1. […]

ALCL cell lines = experiment: MTT proliferation assay; assay type: cell-based, human; conditions: eight ALCL cell lines
Description: as §1
as §2, with “An amount of MTT solution equal to 0.5 mg/mL was then added to each well and incubated in the dark at 37° C. for 4 hours.” left out, “Three independent experiments were run for each cell line. The doses corresponding to the IC50 were estimated by fitting a sigmoidal model through the dose response curve using the R statistical package (R: A Language and Environment for Statistical Computing, R Foundation for Statistical Computing, Vienna, Austria).” left out
The activity of Formula 2 was also evaluated in ALCL cell lines using the procedures described in Example 1. […]

DLBCL cell lines [3] = experiment: Cell death, propidium iodide flow cytometry; assay type: cell-based, human; conditions: 24 and 72 hours, 0.1-15 μM; SU-DHL-2 and DoHH2
Description: Cell death was evaluated as follows. […], harvested and washed once in PBS and then stained with propidium iodide (PI 1 μg/ml, Sigma) in PBS and analyzed using a FACScan flow cytometer (Becton Dickinson, Mountain View, Calif., USA). The analysis of the percentage of cell death was performed using CellQuest Pro software (Becton Dickinson).

DLBCL cell lines [4] = experiment: Cell cycle analysis, flow cytometry; assay type: cell-based, human; conditions: five DLBCL cell lines, 24 h
Description: (§3) Cell cycle analysis was performed using the following procedure. Cells were treated with DMSO or different doses of Formula 2 for 24 hours, harvested and washed once in PBS and then fixed in 80% ethanol at 4° C. for at least one hour. Cells were stained with propidium iodide (PI 50 μg/ml, Sigma) in PBS containing RNAse-A (75 kU/ml, Sigma) and analyzed for DNA content using a FACScan flow cytometer (Becton Dickinson). Cell cycle analysis was performed using the ModFit LT software package (Verity Software House, Inc., Topsham, Me., USA).
Not having observed the induction of massive cell death despite the important effect on cell viability, the effect of Formula 2 on the cell cycle was investigated (FIG. 6). […] FIG. 7 illustrates representative flow cytometry profiles of untreated control cells and SU-DHL-6 cells treated for 24 hours with 0.2 in μM of Formula 2.

[5] = system: c-MYC mRNA in DLBCL cell lines; experiment: c-MYC mRNA levels, real-time PCR; assay type: cell-based, human
Description: (§4) RNA was extracted using the RNA easy kit (Qiagen AG, Hombrechtikon, Switzerland). The concentration of total RNA was determined spectrophotometrically at 260 nm using a NanoDrop spectrometer (NanoDrop Technologies, Wilmington, Del., USA). One microgram of total RNA was reverse-transcribed using the Superscript First-Strand Synthesis System for real-time PCR kit (Invitrogen, Karlsruhe, Germany) according to the manufacturer's instructions. PCR amplification was performed using Fast SYBR Green Master Mix on a StepOnePlus real-time PCR System (Applied Biosystems, Foster City, Calif., USA). Primer sets (Table 2) were designed using the Primer3 software package (Rozen, S., Skaletsky, H. Primer3 on the WWW for general users and for biologist programmers. In: Misener, S., Krawetz, S. A., Eds. Methods in Molecular Biology, Vol. 132: Bioinformatics Methods and Protocols. Totowa, N.J., USA: Humana Press Inc., 2000, pp. 365-386). All samples were analyzed in triplicate. The relative quantity of the specific mRNA for each sample was calculated based on mean cycle threshold (Ct) values using the delta-delta Ct with a correction for experimental variations by normalization to the housekeeping gene GAPDH.

[6] = system: NFκB target genes in DLBCL cell lines; experiment: NFκB target gene expression; assay type: cell-based, human; conditions: two DLBCL cell lines
Description: as §4
BRD4 co-activates transcriptional activation of NF-B via specific binding to acetylated ReIA. […]

MM cell lines [7] = experiment: Cell death, propidium iodide flow cytometry; assay type: cell-based, human
Description: Cell death was evaluated as follows. Cells were treated with DMSO or different doses of Formula 2 for 72 hours, harvested and washed once in PBS and then stained with propidium iodide (PI 1 μg/ml, Sigma) in PBS and analyzed using a FACScan flow cytometer (Becton Dickinson, Mountain View, Calif., USA). The analysis of the percentage of cell death was performed using CellQuest Pro software (Becton Dickinson).
(§5) The activity of Formula 2 was also evaluated in MM cell lines. […] All the BRD factors were expressed (FIG. 14).

MM cell lines [8] = experiment: Cell cycle analysis, flow cytometry; assay type: cell-based, human; conditions: two of the three MM cell lines
Description: as §3, §5

[9] = system: MYC mRNA in MM cell lines; experiment: MYC mRNA levels, real-time PCR; assay type: cell-based, human; conditions: RPMI8226 and MM1S cell lines, 24 hours
Description: as §4

MM cell lines [10] = experiment: % Annexin V positive cells; assay type: cell-based, human; conditions: doses at IC50, 24 hours
Description: FIG. 18 illustrates the % Annexin V positive cells obtained after doses of Formula 2 at IC50 and 24 hours.

c-MYC in ALCL cell lines = experiment: c-MYC mRNA levels, real-time PCR; assay type: cell-based, human; conditions: 8 and 24 hours of treatment
Description: as §4
FIGS. 25A-25E illustrate c-MYC levels in ALCL cell lines after 8 hours of treatment with Formula 2. FIG. 26 illustrates c-MYC levels in ALCL cell lines after 24 hours of treatment with Formula 2.

[11] = system: MYC mRNA in MM cell lines; conditions: reported; cited from earlier work

## Cc1sc2c(c1C)C(c1ccc(Cl)cc1)=N[C@@H](CC(=O)Nc1ccc(O)cc1)c1nnc(C)n1-2 [Formula 2, (S)-2-[4-(4-chlorophenyl)-2,3,9-trimethyl-6H-thieno[3,2-f][1,2,4]triazolo-[4,3-a][1,4]diazepin-6-yl]-N-(4-hydroxyphenyl)acetamide]
DoHH2
  IC50: 90 nM
Granta-519
  IC50: > 15000 nM
JeKo-1
  IC50: 2790 nM
Karpass 422
  IC50: 277 nM
MAVER-1
  IC50: 1220 nM
MM1S
  IC50: 59 nM
OCI-Ly7
  IC50: 1390 nM
RPMI8226
  IC50: 700 nM
Rec-1
  IC50: 1220 nM
SU-DHL-2
  IC50: 69 nM
SU-DHL-4
  IC50: 607 nM
SU-DHL-5
  IC50: 189 nM
SU-DHL-6
  IC50: 110 nM
SU-DHL-7
  IC50: 132 nM
U-2932
  IC50: 255 nM
U266
  IC50: 449 nM
DLBCL cell lines [1]; seven very sensitive DLBCL cell lines
  IC50: < 300 nM
DLBCL cell lines [1]; two DLBCL cell lines
  IC50: 600 to 1400 nM
DLBCL cell lines [1]; all the DLBCL cell lines
  cell viability: dose-dependent decrease in cell viability
MCL cell lines; Homo sapiens
  IC50: 1200 to 2700 nM
MCL cell lines
  cell viability: dose-dependent decrease in cell viability
MM cell lines [2]; Homo sapiens
  IC50: 60 to 700 nM
MM cell lines [2]
  cell viability: reduction in cell viability in all the cell lines
VAL; Homo sapiens, VAL (DLBCL), MTT, 72 h, read-out: estimated IC50
  IC50: > 12700 nM
VAL; VAL, doses of up to 10 μM
  reduction in cell proliferation: over 40%
SMZL cell lines
  cell viability: dose-dependent decrease in cell viability
ALCL cell lines
  cell viability: dose-dependent decrease in cell viability
DLBCL cell lines [3]
  cell death: induces cell death only in a small percentage of the cell
DLBCL cell lines [4]
  effect on the cell cycle: induced a G1-arrest in a dose-dependent manner
[5]; six DLBCL cell lines, 24 hours of treatment
  c-MYC mRNA levels: down-regulated in five of the six cell lines
[5]; three DLBCL cell lines, 1 hour of treatment
  c-MYC levels: down-regulation of c-MYC in two of three DLBCL cell lines
[6]
  NFκB target genes expression: partial down-regulation of NFκB target genes
MM cell lines [7]
  cell death: did not show an important increase of cell death
MM cell lines [8]
  cell cycle analysis, S-phase: significant reduction of S-phase
[9]
  MYC mRNA levels: significant reduction of MYC mRNA levels in a dose-dependent manner; also recorded: down-regulation of c-MYC in a dose-dependent manner
MM cell lines [10]
  cytostatic versus cytotoxic effect (% Annexin V positive cells): cytostatic effect
c-MYC in ALCL cell lines
  c-MYC levels: down-regulation of c-MYC in a dose-dependent manner

## Cc1sc2c(c1C)C(c1ccc(Cl)cc1)=N[C@@H](CC(=O)OC(C)(C)C)c1nnc(C)n1-2 [JQ1]
[11]
  MYC levels: down-regulation of MYC
